# Laboratory results as given in patent US10450549B2, “Aryloxyphenoxypropionate tolerance in turfrgass species and use of AAD1 as a selectable marker” (Dow AgroSciences, LLC, priority 2004, dated 2019).
# Experiments:
# [1] = tested on: AAD2 (v1)-transformed T1 Arabidopsis; assay: T1 Arabidopsis response to postemergence herbicide, % visual injury 2 WAT: native AAD2 (v1) transformants; assay type: in vivo, Arabidopsis thaliana; conditions: Native AAD2 gene
# From the text: Table 16. […] Response is presented in terms of % visual injury 2 WAT. […] Since each T1 is an independent transformation event, one can expect significant variation of individual T1 responses within a given rate. An arithmetic mean and standard deviation is presented for each treatment. The range in individual response is also indicated in the last column for each rate and transformation. PAT/Cry1F-transformed Arabidopsis served as an auxin-sensitive transformed control. Wildtype Arabidopsis is untransformed.
# Freshly harvested T1 seed transformed with a native [AAD1 (v2)], plant optimized [AAD1 (v3)], or native AAD2 (v1) gene was allowed to dry for 7 days at room temperature. T1 seed was sown in 26.5×51-cm germination trays (T.O. Plastics Inc., Clearwater, Minn.), each receiving a 200 mg aliquots of stratified T1 seed (˜10,000 seed) that had previously been suspended in 40 ml of 0.1% agarose solution and stored at 4° C. for 2 days to complete dormancy requirements and ensure synchronous seed germination.
# Sunshine Mix LP5 (Sun Gro Horticulture Inc., Bellevue, Wash.) was covered with fine vermiculite and subirrigated with Hoagland's solution until wet and then allowed to gravity drain. Each 40 ml aliquot of stratified seed was sown evenly onto the vermiculite with a pipette and covered with humidity domes (KORD Products, Bramalea, Ontario, Canada) for 4-5 days. Domes were removed 1 day prior to initial transformant selection using glufosinate postemergence spray (selecting for the co-transformed PAT gene).
# Five to six days after planting (DAP) and again 10 DAP, T1 plants (cotyledon and 2-4-1f stage, respectively) were sprayed with a 0.2% solution of Liberty herbicide (200 g ai/L glufosinate, Bayer Crop Sciences, Kansas City, Mo.) at a spray volume of 10 ml/tray (703 L/ha) using a DeVilbiss compressed air spray tip to deliver an effective rate of 280 g ai/ha glufosinate per application. Survivors (plants actively growing) were identified 5-7 days after the final spraying and transplanted individually into 3-inch pots prepared with potting media (Metro Mix 360). Transplanted plants were covered with humidity domes for 3-4 days and placed in a 22° C. growth chamber as before. Domes were subsequently removed and plants moved to the greenhouse (22+5° C., 50+30% RH, 14 hours light:10 dark, minimum 500 μE/m^2s^1 natural+supplemental light) at least 1 day prior to testing for the ability of AAD1 (v3), AAD1 (v2), or AAD2 (v1) to provide phenoxy auxin herbicide resistance.
# Random individual T1 plants selected for glufosinate resistance above were confirmed for expression of the PAT protein using a PAT ELISA kit (Part no. 7000045, Strategic Diagnostics, Inc., Newark, Del.) to non-destructively confirm fidelity of selection process (manufacturer's protocol).
# Herbicide applications were applied by track sprayer in a 187 L/ha spray volume.
# [2] = tested on: Hi-II corn grown from seed; assay: Lethal dose of AOPP herbicides on non-transformed Hi-II corn; conditions: for rate that effectively kills (>95% injury) three to four leaf Hi-II corn: postemergence, commercial formulations
# AAD1 (v3) rice plantlets = assay: Rice tolerance testing with Assure II (sensitivity or resistance 10-14 DAT); assay type: in vivo, Oryza sativa L. japonica cv. Taipei 309; conditions: 140 g ae/ha
# Procedure: This concentration corresponds to approximately 140 g ae/ha. Each plant was spayed in a fume hood at a distance of 8-12 inches with 6 full squirts of the sprayer directed so that the entire plant was covered with an equal portion of herbicide. Each squirt delivered approximately 100 μl solution to the plantlet. Once sprayed, plantlets were allowed to dry for one hour before being moved out of the fume hood.
# callus event 3404-006 = assay: Dose response of AAD1 (v3) expressing maize callus event; assay type: cell-based; conditions: haloxyfop (Gallant Super) up to 400 nM
# Procedure: Non-transformed donor Hi-II cell lines were pooled together, […]-treated without DNA, filtered onto GN6 medium at the rate of 6 ml per filter, and allowed to callus for 2-3 weeks at 28° C. Approximately 200 mg of callused suspension tissue was transferred per treatment to selection media in 60×20 mm plates containing 30, 100 or 300 nM R-haloxyfop acid. Three replicates were used per concentration. A control medium containing 1 mg/L bialaphos (from Herbiace commercial formulation, Meiji Seika, Japan), GN6 (1H), was also included for comparison. Callus was removed after 2 weeks, weighed, and transferred to fresh media of the same concentration for another 2 weeks. After a total of 4 weeks elapsed time, tissue was removed, weighed a final time, and then discarded.
# A smaller subset of these events was assessed in dose-response studies in comparison to a non-transformed control. A range of concentrations of haloxyfop (from Gallant Super formulation), up to 400 nM, were tested.
smiles,measurement,setting,value
"O=C(O)COc1ccc(Cl)cc1Cl [2,4-D, 2,4-dichlorophenoxyacetic acid]",% Injury Ave,[1]; 50 g ae/ha,68.2%
same,individuals with 20-40% injury,[1]; 50 g ae/ha,2
same,individuals with <20% injury,[1]; 50 g ae/ha,1
same,individuals with >40% injury,[1]; 50 g ae/ha,11
same,individuals with 20-40% injury,[1]; 200 g ae/ha,3
same,individuals with <20% injury,[1]; 200 g ae/ha,0
same,individuals with >40% injury,[1]; 200 g ae/ha,11
same,% Injury Ave,[1]; 800 g ae/ha,99.8%
same,individuals with 20-40% injury,[1]; 800 g ae/ha,0
same,individuals with <20% injury,[1]; 800 g ae/ha,0
same,individuals with >40% injury,[1]; 800 g ae/ha,14
C[C@@H](Oc1ccc(Oc2cnc3cc(Cl)ccc3n2)cc1)C(=O)O [quizalofop],lethal dose,[2]; Assure II + 1% COC (v/v),4.4 g ae/ha)
same,rate that effectively kills (>95% injury) three to four leaf Hi-II corn,[2],4.4 g ae/ha
same,Rating for sensitivity or resistance,AAD1 (v3) rice plantlets; Control rice plant,Dead
same,Rating for sensitivity or resistance,AAD1 (v3) rice plantlets; rice plant 63-1A,No injury
same,Rating for sensitivity or resistance,AAD1 (v3) rice plantlets; rice plant 63-1F,No injury
same,Rating for sensitivity or resistance,AAD1 (v3) rice plantlets; rice plant 63-4B,No injury
same,Rating for sensitivity or resistance,AAD1 (v3) rice plantlets; rice plant 63-4D,No injury
same,Rating for sensitivity or resistance,AAD1 (v3) rice plantlets; rice plant 63-6C,Dead
CC(Oc1ccc(Oc2ncc(C(F)(F)F)cc2Cl)cc1)C(=O)O (stereo not shown) [haloxyfop],lethal dose,[2]; Gallant super + 1% COC (v/v),8.8 g ae/ha)
same,rate that effectively kills (>95% injury) three to four leaf Hi-II corn,[2],8.8 g ae/ha
same,callus growth of event 3404-006,callus event 3404-006,no significant reduction in callus growth
